From US8633315B2, “Substituted hydroxyethyl amine compounds as beta-secretase modulators and methods of use” (Amgen Inc., priority 2007, dated 2014)
pIC50: −log10 of the molar value.

What was measured:
BACE1 = BACE1 (Homo sapiens, UniProt P56817); test: In vitro enzymatic BACE FRET (fluorescence resonance energy transfer) assay; type: biochemical
How it was run: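 Cleavage of a quenched peptide FRET substrate (50 nM) in 0.05 M acetate pH 4.2, 10% DMSO, 100 uM genapol, 1 h incubation. Reaction stopped by Tris neutralization; fluorescence read at excitation 488 nm / […].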

[1] = test system: Cells stably expressing Amyloid Precursor Protein (APP); test: In vitro BACE cell-based assay (HEK cell assay): Aβ40 in conditioned medium by sandwich ELISA; details: Aβ40 in conditioned medium after 24 h incubation
How it was run: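 APP-stably-expressing cells were grown 24 h in DMEM/10% FBS, then treated for 24 h with 10-point doses starting at 100 μM or 10 μM, at 0.1% DMSO final. Aβ40 in conditioned medium was measured by sandwich ELISA (pAb40 capture, biotinylated 6E10 detection, europium time-resolved fluorescence); IC50 from percent inhibition.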

Sequence of BACE1 (P56817 46-501, species assumed): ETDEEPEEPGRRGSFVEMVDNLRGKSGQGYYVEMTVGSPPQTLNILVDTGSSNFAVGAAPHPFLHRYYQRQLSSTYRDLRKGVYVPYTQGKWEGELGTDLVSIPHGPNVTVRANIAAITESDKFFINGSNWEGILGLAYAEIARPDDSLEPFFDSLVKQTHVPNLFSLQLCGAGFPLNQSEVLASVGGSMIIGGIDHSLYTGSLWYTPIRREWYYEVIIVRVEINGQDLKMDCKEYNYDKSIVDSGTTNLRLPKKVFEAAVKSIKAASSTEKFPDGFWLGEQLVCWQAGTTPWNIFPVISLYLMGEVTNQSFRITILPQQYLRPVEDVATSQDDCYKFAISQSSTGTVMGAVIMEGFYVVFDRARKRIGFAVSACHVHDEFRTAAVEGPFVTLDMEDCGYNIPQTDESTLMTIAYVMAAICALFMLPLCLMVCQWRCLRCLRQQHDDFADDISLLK

Structure (SMILES)	pIC50 (BACE1)	pIC50 ([1]; Homo sapiens, HEK293, 24 h)	pIC50 [1]
C=CC[C@H](NC(=O)[C@@H](F)C(F)(F)F)[C@H](O)CN[C@H]1CC2(CCC2)Oc2ncc(CC(C)(C)C)cc21 [Example 137, (2R)-N-((1S)-1-((1R)-2-(((4′S)-6′-(2,2-dimethylpropyl)-3′,4′-dihydrospiro[cyclobutane-1,2′-pyrano[2,3-b]pyridin]-4′-yl)amino)-1-hydroxyethyl)-3-buten-1-yl)-2,3,3,3-tetrafluoropropanamide]	7.10	6.20	
C=CC[C@H](NC(=O)[C@H](F)C(F)(F)F)[C@H](O)CN[C@H]1CC2(CCC2)Oc2ncc(CC(C)(C)C)cc21 [Example 138, (2S)-N-((1S)-1-((1R)-2-(((4′S)-6′-(2,2-dimethylpropyl)-3′,4′-dihydrospiro[cyclobutane-1,2′-pyrano[2,3-b]pyridin]-4′-yl)amino)-1-hydroxyethyl)-3-buten-1-yl)-2,3,3,3-tetrafluoropropanamide]	6.94	6.71	
C=CC[C@H](NC(=O)[C@H]1CC1(F)F)[C@H](O)CN[C@H]1CC2(CCC2)Oc2ncc(CC(C)(C)C)cc21 [Example 139, (1R)-N-((1S)-1-((1R)-2-(((4′S)-6′-(2,2-dimethylpropyl)-3′,4′-dihydrospiro[cyclobutane-1,2′-pyrano[2,3-b]pyridin]-4′-yl)amino)-1-hydroxyethyl)-3-buten-1-yl)-2,2-difluorocyclopropanecarboxamide]	6.70	6.56	
C=CC[C@H](NC(=O)[C@@H]1CC1(F)F)[C@H](O)CN[C@H]1CC2(CCC2)Oc2ncc(CC(C)(C)C)cc21 [Example 140, (1S)-N-((1S)-1-((1R)-2-(((4′S)-6′-(2,2-dimethylpropyl)-3′,4′-dihydrospiro[cyclobutane-1,2′-pyrano[2,3-b]pyridin]-4′-yl)amino)-1-hydroxyethyl)-3-buten-1-yl)-2,2-difluorocyclopropanecarboxamide]	6.42	6.48	
C=CC[C@H](NC(=O)C(C)(C)F)[C@H](O)CN[C@H]1CC2(CCC2)Oc2ncc(CC(C)(C)C)cc21 [Example 141, N-((1S)-1-((1R)-2-(((4′S)-6′-(2,2-dimethylpropyl)-3′,4′-dihydrospiro[cyclobutane-1,2′-pyrano[2,3-b]pyridin]-4′-yl)amino)-1-hydroxyethyl)-3-buten-1-yl)-2-fluoro-2-methylpropanamide]	6.02	6.32	
C=CC[C@H](NC(=O)[C@@H](F)c1ccccc1)[C@H](O)CN[C@H]1CC2(CCC2)Oc2ncc(CC(C)(C)C)cc21 [Example 142, (2S)-N-((1S)-1-((1R)-2-(((4′S)-6′-(2,2-dimethylpropyl)-3′,4′-dihydrospiro[cyclobutane-1,2′-pyrano[2,3-b]pyridin]-4′-yl)amino)-1-hydroxyethyl)-3-buten-1-yl)-2-fluoro-2-phenylethanamide]	7.48	5.81	
C=CC[C@H](NC(=O)[C@H](F)c1ccccc1)[C@H](O)CN[C@H]1CC2(CCC2)Oc2ncc(CC(C)(C)C)cc21 [Example 143, (2R)-N-((1S)-1-((1R)-2-(((4′S)-6′-(2,2-dimethylpropyl)-3′,4′-dihydrospiro[cyclobutane-1,2′-pyrano[2,3-b]pyridin]-4′-yl)amino)-1-hydroxyethyl)-3-buten-1-yl)-2-fluoro-2-phenylethanamide]	5.54	6.27	
C=CC[C@H](NC(=O)COC(C)(C)C)[C@H](O)CN[C@H]1CC2(CCC2)Oc2ncc(CC(C)(C)C)cc21 [Example 144, 2-((1,1-dimethylethyl)oxy)-N-((1S)-1-((1R)-2-(((4′S)-6′-(2,2-dimethylpropyl)-3′,4′-dihydrospiro[cyclobutane-1,2′-pyrano[2,3-b]pyridin]-4′-yl)amino)-1-hydroxyethyl)-3-buten-1-yl)acetamide]	6.46	5.95	
C=CC[C@H](NC(=O)COC(C)C)[C@H](O)CN[C@H]1CC2(CCC2)Oc2ncc(CC(C)(C)C)cc21 [Example 145, N-((1S)-1-((1R)-2-(((4′S)-6′-(2,2-dimethylpropyl)-3′,4′-dihydrospiro[cyclobutane-1,2′-pyrano[2,3-b]pyridin]-4′-yl)amino)-1-hydroxyethyl)-3-buten-1-yl)-2-((1-methylethyl)oxy)acetamide]	7.11	6.52	
C=CC[C@H](NC(=O)[C@@H](CC)OC)[C@H](O)CN[C@H]1CC2(CCC2)Oc2ncc(CC(C)(C)C)cc21 [Example 146, (2R)-N-((1S)-1-((1R)-2-(((4′S)-6′-(2,2-dimethylpropyl)-3′,4′-dihydrospiro[cyclobutane-1,2′-pyrano[2,3-b]pyridin]-4′-yl)amino)-1-hydroxyethyl)-3-buten-1-yl)-2-(methyloxy)butanamide]	6.25	6.61	
C=CC[C@H](NC(=O)[C@H](CC)OC)[C@H](O)CN[C@H]1CC2(CCC2)Oc2ncc(CC(C)(C)C)cc21 [Example 147, (2S)-N-((1S)-1-((1R)-2-(((4′S)-6′-(2,2-dimethylpropyl)-3′,4′-dihydrospiro[cyclobutane-1,2′-pyrano[2,3-b]pyridin]-4′-yl)amino)-1-hydroxyethyl)-3-buten-1-yl)-2-(methyloxy)butanamide]	7.02	6.38	
C=CC[C@H](NC(=O)[C@@H](C)F)[C@H](O)CN[C@H]1CC2(CCC2)Oc2ncc(CC(C)(C)C)cc21.C=CC[C@H](NC(=O)[C@H](C)F)[C@H](O)CN[C@H]1CC2(CCC2)Oc2ncc(CC(C)(C)C)cc21 [Example 148, (2R)-N-((1S)-1-((1R)-2-(((4′S)-6′-(2,2-dimethylpropyl)-3′,4′-dihydrospiro[cyclobutane-1,2′-pyrano[2,3-b]pyridin]-4′-yl)amino)-1-hydroxyethyl)-3-buten-1-yl)-2-fluoropropanamide; (2S)-N-((1S)-1-((1R)-2-(((4′S)-6′-(2,2-dimethylpropyl)-3′,4′-dihydrospiro[cyclobutane-1,2′-pyrano[2,3-b]pyridin]-4′-yl)amino)-1-hydroxyethyl)-3-buten-1-yl)-2-fluoropropanamide]	7.15		6.92
C=CC[C@H](NC(=O)[C@@H](OC)C(C)C)[C@H](O)CN[C@H]1CC2(CCC2)Oc2ncc(CC(C)(C)C)cc21 [Example 149, (2S)-N-((1S)-1-((1R)-2-(((4′S)-6′-(2,2-dimethylpropyl)-3′,4′-dihydrospiro[cyclobutane-1,2′-pyrano[2,3-b]pyridin]-4′-yl)amino)-1-hydroxyethyl)-3-buten-1-yl)-3-methyl-2-(methyloxy)butanamide]	6.03	5.73	
C=CC[C@H](NC(=O)[C@H](OC)C(C)C)[C@H](O)CN[C@H]1CC2(CCC2)Oc2ncc(CC(C)(C)C)cc21 [Example 150, (2R)-N-((1S)-1-((1R)-2-(((4′S)-6′-(2,2-dimethylpropyl)-3′,4′-dihydrospiro[cyclobutane-1,2′-pyrano[2,3-b]pyridin]-4′-yl)amino)-1-hydroxyethyl)-3-buten-1-yl)-3-methyl-2-(methyloxy)butanamide]	5.57	5.28	
C=CC[C@H](NC(=O)C1(OC)CC1)[C@H](O)CN[C@H]1CC2(CCC2)Oc2ncc(CC(C)(C)C)cc21 [Example 151, N-((1S)-1-((1R)-2-(((4′S)-6′-(2,2-dimethylpropyl)-3′,4′-dihydrospiro[cyclobutane-1,2′-pyrano[2,3-b]pyridin]-4′-yl)amino)-1-hydroxyethyl)-3-buten-1-yl)-1-(methyloxy)cyclopropanecarboxamide]	6.34	6.06	
C=CCC(NC(=O)C1CN(C(=O)N2CCCCC2)CCO1)C(O)CNC1CC2(CCC2)Oc2ncc(CC(C)(C)C)cc21 (stereo not drawn) [Example 152]	7.92	8.40	
C=CCC(NC(=O)C1CC1OCC)C(O)CNC1CC2(CCC2)Oc2ncc(CC(C)(C)C)cc21 [Example 153, (1R,2R)-N-((1S)-1-((1R)-2-(((4′S)-6′-(2,2-dimethylpropyl)-3′,4′-dihydrospiro[cyclobutane-1,2′-pyrano[2,3-b]pyridin]-4′-yl)amino)-1-hydroxyethyl)-3-buten-1-yl)-2-(ethyloxy)cyclopropanecarboxamide; (1S,2S)-N-((1S)-1-((1R)-2-(((4′S)-6′-(2,2-dimethylpropyl)-3′,4′-dihydrospiro[cyclobutane-1,2′-pyrano[2,3-b]pyridin]-4′-yl)amino)-1-hydroxyethyl)-3-buten-1-yl)-2-(ethyloxy)cyclopropanecarboxamide]	6.98	6.89	
C=CCC(NC(=O)C1CC1OCC)C(O)CNC1CC2(CCC2)Oc2ncc(CC(C)(C)C)cc21 [Example 154, (1R,2S)-N-((1S)-1-((1R)-2-(((4′S)-6′-(2,2-dimethylpropyl)-3′,4′-dihydrospiro[cyclobutane-1,2′-pyrano[2,3-b]pyridin]-4′-yl)amino)-1-hydroxyethyl)-3-buten-1-yl)-2-(ethyloxy)cyclopropanecarboxamide; (1S,2R)-N-((1S)-1-((1R)-2-(((4′S)-6′-(2,2-dimethylpropyl)-3′,4′-dihydrospiro[cyclobutane-1,2′-pyrano[2,3-b]pyridin]-4′-yl)amino)-1-hydroxyethyl)-3-buten-1-yl)-2-(ethyloxy)cyclopropanecarboxamide]	6.86		6.62
